# “Also recorded” adds a separate entry of the source.
# Legend:
# [1] = Wistar rats, 20 mg/kg orally daily for 5 days, cited from earlier work
# [2] = Plasma glucose, insulin and glucagon during the four hour recovery period; assay type: in vivo, human
# Method: Before the subjects started the depletion ride, blood was drawn from a medial antecubital vein to establish baseline values for plasma glucose, plasma insulin and plasma glucagon concentrations. After completion of the depletion ride and 240 minutes later, a muscle biopsy was obtained from the vastus lateralis muscle by the use of a percutaneous needle biopsy technique, using the protocol described by Bergström (Bergström 1962). The biopsy sampling was performed by a trained physician with extensive experience in sterile technique. An area of anterolateral side of one thigh was disinfected with chlorhexidine, and local anesthetized with lidocaine (10 mg/ml) in the skin, subcutaneous tissue and muscle fascia. After the area was covered with a sterile hole-piece, a small incision in the skin and fascia of the leg was made with a scalpel and a tissue sample was taken with a Bergström biopsy needle with the aid of suction. The biopsy procedure was managed by Mikkel Overgaard, and assisted by Søren Lavrsen. Approx. 100 mg of muscle tissue was taken from the vastus lateralis muscle. The muscle tissue samples were weighted and immediately placed in liquid nitrogen, and then transferred to a freezer (−80° C.) for storage until analysis for determination of glycogen concentration would be made. At the same time a polyethylene catheter was placed subcutaneous into a medial antecubital vein from which blood samples were collected. 10 ml of blood were drawn for the analysis of plasma glucose and insulin, and 7.5 ml of blood was drawn for the analysis of plasma glucagon. After the first sample at 0 minutes, blood was drawn at 30, 60, 90, 120, 150, 180, 210 and 240 minutes after the subject has finished the glycogen depletion protocol. Blood samples were centrifuged before 2 ml of the plasma was pipetted into standard analyzing tubes and stored at −80° C. for later analysis.
# Immediately after the muscle biopsy procedure and initial blood sampling, the subjects ingested either 500 mg of steviol glucosides, or placebo (500 mg of corn starch) Supplementation, together with 1.5 gr/body weight of liquid maltodextrine solution (Pure Power, Harre Denmark). The sequence of stevioside and placebo supplementation was randomized in a balanced order. At 60, 120 and 180 minutes after termination of the depletion ride, the subjects received another carbohydrate rich feeding (1.5 gr/body weight/hour of Carbohydrates/kg body weight/hour), in accordance with the guidelines recommended by (Ivy et al. 1988).
# Blood samples were collected for the measurements for measurement of the plasma glucose, insulin and glucagon values before initiation of the glycogen depletion protocol and at 0, 30, 60, 90, 120, 150, 180, 210 and 240 minutes after the subject has finished the glycogen depletion protocol.
# 10 ml of blood were drawn for the analysis of plasma glucose and insulin, and 7.5 ml of blood was drawn for the analysis of plasma glucagon. All blood was drawn from the antecubital vein. For glucose and insulin the drawn blood was collected in lilthium heparinized tubes (Venosafe—plasma VF-109SHL, Terumo Europe N.V., Leuven, Belgium). For glucagon the drawn blood was collected in EDTA treated tubes (Venosafe). With all samples the tubes were turned over 10 times, to avoid coagulation, before they were centrifuged at 1500 G for 10 minutes at 5° C. using a Sigma 3-18 centrifuge (Sigma Laborzentrifugen GmbH, Osterode am Harz, Germany). 2 ml of the plasma was pipetted into standard analyzing tubes and stored at −80° C. for later analysis. After all testing sessions were finished; all blood samples were packed, according to regulations, in an icebox at […], and transported to the Diabetes laboratory 4, at Aarhus University Hospital, Tage-Hansens Gade (Aarhus, Denmark) for analysis of plasma glucose, insulin and glucagon concentration. […]
# [3] = tested on: muscle glycogen (vastus lateralis); assay: Muscle glycogen resynthesis after glycogen depleting exercise, double blinded crossover, vastus lateralis biopsies; assay type: in vivo, human
# Method: In this example, the effect is examined of a 500 mg steviol glycosides supplementation together with post-exercise oral carbohydrate (1.5 g/kg/h), versus an isocaloric carbohydrate supplementation on muscle glycogen resynthesis, following glycogen depletive exercise. Fifteen trained male cyclists performed two cycling sessions of 120 min at 75-85% Vo2-max, with the post exercise supplementation of stevioside organized in a double blinded crossover study design. Over the course of a 4 h of recovery period, muscle biopsies were obtained from the vastus lateralis immediately and 240 minutes after exercise, to measure post-recovery glycogen concentration and rate of post-exercise glycogen synthesis. In order to measure plasma glucose, insulin and glucagon, blood samples were drawn before and immediately after exercise, and at every half hour during the four hour recovery period. Results A significant increase in total glycogen concentration was seen following the 4 hour of recovery in both trials (p<0.005). […] Plasma glucose and glucagon levels also show a reduction when stevioside was supplied.
# In the present study, a double blinded crossover protocol was used to examine the effect of post exercise carbohydrate ingestion supplemented with or without stevioside supplementation on muscle glycogen resynthesis. The double blinded crossover protocol was chosen to ensure a satisfactory statistical power with the relative few subjects that were included in this study. After completing a preliminary anthropometric assessment incremental and VO2-max test, each subject completed two randomized experimental trials; separate by at least seven days.
# After the preliminary testing, each subject underwent two experimental trials, with the experimental supplementation randomized using a randomizing software (Research randomizer) and blinded to both subject and researchers by supplementing the stevioside concealed in capsules. […] The two experimental trials were separated by at least seven days. The subjects were instructed to refrain from any intense exercise 24 hour before both the preliminary test and the two experimental trials. […]
# As illustrated the table below, the subjects arrived fasting at 8:00 o'clock a.m. in the lab and completed a glycogen depletion ride consisting of 120 minutes cycling at 75%-80% of their maximal heart rate reserve, followed by a series of five 30 seconds sprint interval at an all-out intensity interspaced with a rest period of 60 seconds. Workload and target heart rate zone was calculated for the subjects, based on the results presented in table 1, performance characteristics of the subjects. […]
# [4] = lean and obese Zucker rats; 200 or 500 mg/kg by gavage; cited from earlier work
# isolated mouse islets = conditions: effect faded at normal to low glucose; cited from earlier work
# [5] = tested on: skeletal muscle glucose transport system; conditions: soleus and epitrochlearis muscles of lean and obese Zucker rats; dose-dependent; cited from earlier work
# [6] = type II diabetic patients, cited from earlier work
# [7] = type 2 diabetic subjects, cited from earlier work
smiles,measurement,setting,value
"C=C1C[C@@]23CC[C@H]4[C@@](C)(CCC[C@@]4(C)C(=O)O[C@@H]4O[C@H](CO)[C@@H](O)[C@H](O)[C@H]4O)[C@@H]2CC[C@]1(O[C@@H]1O[C@H](CO)[C@@H](O)[C@H](O)[C@H]1O[C@@H]1O[C@H](CO)[C@@H](O)[C@H](O)[C@H]1O)C3 [stevioside, Stevioside]",glucose levels before the glucose test compared to control group,[1],no significant decrease
same,glucose levels under increased loading during the glucose test,[1]; stevioside alone,conferred beneficial effects
same,time of second plasma insulin peak concentration,"[2]; after third CHO feeding at 120 minutes, placebo at 150",180 min
same,difference in plasma insulin concentration between stevioside and control (iAUC),"[2]; any times during the recovery period, p=0.95",no significant difference
same,plasma glucagon concentration (area under the curve) compared to placebo,[2]; four hour recovery period,reduction
same,plasma glucagon concentration (area under the curve) compared to placebo,"[2]; four hour recovery period, listed as stevia",clearly reduced
same,plasma glucose response (iAUC) compared to placebo,"[2]; four hour recovery period, not statistically significant",reduction; also recorded: lower
same,"plasma insulin, mean area under the curve","[2]; four hour recovery period, placebo 55790±12660",56720±11950 ng/ml*4 hours
same,increase of glycogen resynthesis rate compared to placebo,"[3]; 4 h recovery, 500 mg orally with carbohydrate",35%
same,glycogen resynthesis rate (rate of glycogen repletion),"[3]; 4 h recovery, 500 mg steviol glycosides orally with carbohydrate 1.5 g/kg/h, mean±SE, placebo 27.96±2.6",37.84 ± 3.72 mmol/kg/h
same,muscle glycogen concentration,"[3]; 240 minutes after completion of the depletion protocol, placebo 246.4±20",281.5±29 mmol/kg/dw
same,effect on post-exercise muscle glycogen resynthesis,"[3]; four hour recovery period, in addition to carbohydrate, p<0.022",increase muscle glycogen resynthesis significantly
same,fasting plasma glucose and insulin,[4],did not significantly affect
same,insulin release,isolated mouse islets,glucose-dependent insulin release
same,insulin action on skeletal muscle glucose transport system,[5],improves the insulin action
same,postprandial glucagon like peptide-1 level,[6]; 1 g orally,significantly reduced
same,insulin response,"[6]; 1 g orally, not statistically significant",tended to stimulate insulin response
same,reduction of post prandial blood glucose response compared to placebo,[6]; 1 g stevioside orally with standard meal,18.5%
same,suppression of postprandial blood glucose level,[7]; 1 g stevioside with standard meal vs maize starch,18%
same,circulating insulin levels,[7]; 1 g stevioside with standard meal,tended to be increased
